Source: PubChem BioAssay AID1324 (NMMLSC, 2008)
Active and inactive are the calls of the source. No rule for the calls is given here.

Molecular target: glutathione S-transferase (GST-GSH binding)
Test: GST–glutathione interaction disruption – biochemical, multiplex beads, flow cytometry, HPSMTB buffer, profiling panel (AID 1324);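 also: glutathione beads loaded with GST-green fluorescent protein and no fluorescent Bim peptide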
Conditions: multiplex bead flow cytometry, MCF, concentration not given here

Structure (SMILES)	percent span inhibition
CCC(CC)C(=O)Nc1cccc(SC)c1	inactive
Cc1ccc(C)c(N2CCN(C(=S)Nc3ccc4nc(N5CCN(C)CC5)cc(C)c4c3)CC2)c1	inactive
O=C1/C(=C\c2ccco2)NC(=S)N1c1ccccc1	inactive
CCCCN(C(=O)CCC(=O)Nc1cc(C)on1)C(C(=O)NC(C)(C)C)c1cccc(OC)c1OC (centres undefined)	inactive
Cc1ccc(OCc2cn3cccnc3n2)cc1	inactive
COc1ccc(N2CC(C(=O)Nc3nnc(SCC(=O)c4ccccc4)s3)CC2=O)cc1 (centres undefined)	inactive
O=C(OCc1nc2ccccc2[nH]1)C12CC3CC(CC(C3)C1)C2	inactive
CCOC(=O)c1nc(Nc2ccc(Nc3ccccc3)cc2)c2ccccc2n1	inactive
Nc1cccc(-c2cn3cccnc3n2)c1	inactive
COC(=O)c1c(NC(=O)COc2ncnc3ccccc23)sc(C)c1C	inactive
O=C(CSc1nnc(-c2cccs2)n1Cc1ccco1)c1ccc2c(c1)OCO2	inactive
CCN(CC)c1nc(N)nc(N(c2ccccc2)c2ccccc2)n1	inactive
CCc1nnc(NC(=O)CSc2nnc(COc3ccc(C)cc3)n2-c2ccccc2)s1	inactive
CCOC(=O)CSC1=NC(=O)/C(=C/c2ccc(Br)cc2)S1	inactive
COc1ccc(NC(=O)COc2ncnc3ccccc23)cc1S(=O)(=O)N1CCOCC1	inactive
O=C(C1=C(Nc2ccccc2)c2ccccc2S(=O)(=O)N1)c1ccccc1	inactive
S=C1NC2=C(CCC/C2=C\c2ccccc2)C(c2ccccc2)N1 (centres undefined)	inactive
Cc1ccc(C2=N/C(=C/c3cccs3)C(=O)N2Nc2ccccc2)cc1	inactive
Cc1ccc(N=Cc2c(O)n(-c3ccc4c(c3)OCO4)c(=O)c3ccccc23)cc1	inactive
COCCN=c1scc(-c2ccco2)n1/N=C/c1ccc(O)c(O)c1O	inactive
COC(=O)C1C2c3ccccc3OC1(C)N=c1s/c(=C/c3cnn(C)c3C)c(=O)n12 (centres undefined)	inactive
Cc1ccc(S(=O)(=O)N(C)CC(=O)N2CCc3ccccc32)cc1	inactive
COc1ccc(NC(=O)c2c(F)cccc2F)cc1S(=O)(=O)Nc1ccc(Br)cc1	inactive
COc1cc(/C=C2/NC(=O)N(Cc3ccccc3F)C2=O)ccc1O	inactive
COc1ccc(-n2c(SCC(=O)Nc3ccc(C(=O)O)cc3)nnc2-c2cccs2)cc1	inactive

Structure (SMILES)	percent span inhibition
COC(=O)c1cccc(-n2c(C)cc(C=O)c2C)c1	inactive
CC1=C2C(CCS2(=O)=O)CC2(C1)C(=O)OC(C)(C)OC2=O (centres undefined)	inactive
Cn1c(=O)c(C(=O)COC(=O)c2cc(-c3ccco3)nc3ccccc23)c(N)n(Cc2ccccc2)c1=O	inactive
Cc1ccc(NN2C(=O)C=CC2=O)cc1	inactive
Cc1ccc(C(=O)NNC(=O)c2ccc3ncccc3c2)cc1	inactive
COc1ccc(OC)c(NC(=O)CCCN2C(=S)NC(C)(C)CC2C)c1 (centres undefined)	inactive
CCOC(=O)c1cccc(Nc2ncnc3ccccc23)c1	inactive
CCN(CC)c1ccc(NC(=O)COc2ccccc2C#N)cc1S(=O)(=O)Nc1ccccc1OC	inactive
COc1cccc2c(SCC(=O)N/N=C/c3ccc(O)cc3O)cc(C)nc12	inactive
CC(C)c1ccc(C2CC(c3ccc(Br)cc3)=NN2C(N)=S)cc1 (centres undefined)	inactive
O=C1c2ccccc2C(=O)N1CN(C(=O)COc1ccc(Cl)cc1Cl)c1cccc(F)c1	inactive
Cc1occc1C(=O)NNC(=S)NCc1ccccc1	inactive
COc1ccc(C2CN(C)CC2C(=O)c2ccc(F)cc2)cc1Cl (centres undefined)	inactive
O=C(c1cccc(Br)c1)N1CCN(c2cnn(-c3ccccc3)c(=O)c2Cl)CC1	inactive
COc1ccc(C2C(C#N)=C(C)NC3=C2S(=O)(=O)c2ccccc23)cc1 (centres undefined)	inactive
CC(=O)Nc1ccc(NC2=C(Cl)C(=O)c3ccccc3C2=O)cc1	inactive
Cc1ccc(-c2cc(C(=O)Nc3ccccn3)c3ccccc3n2)o1	inactive
C/C(=N\NC(=O)Cn1nc(C)c([N+](=O)[O-])c1C)c1ccc(O)cc1	inactive
CC1(C)CC(NC(=O)COc2ccc([N+](=O)[O-])cc2)CC(C)(C)N1	inactive
COc1ccc(OCCNC(=O)c2ccccc2OCC(=O)N2CCCCC2)cc1	inactive
Clc1nc(NCc2cccnc2)nc(N2CCOCC2)n1	inactive
N#C/C(=C(/O)CN1CCN(c2ccccc2F)CC1)c1nc(-c2ccccc2)cs1	inactive
O=C(Nc1n[nH]c(C(F)(F)F)n1)C1CC1	inactive
COc1ccc(NC(=O)/C(C#N)=C/c2c(C)nn(-c3ccc(F)cc3)c2Cl)cc1Cl	inactive
